In PubChem BioAssay (NCI):
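Values below derive from 48-hour exposures of cells grown in 96-well plates, with endpoints linearly interpolated between the two concentrations bracketing the appropriate inhibition level. Abbreviation: GI50, concentration required for 50% inhibition of growth. TGI is the concentration that stops growth completely.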

Columns and labels:
Assay in all cases: NCI anticancer screen, dose series, 48 h
MALME-3M melanoma = system: MALME-3M melanoma
NCI-H460 lung = system: NCI-H460 lung
HCC-2998 colon = system: HCC-2998 colon
PC-3 prostate = system: PC-3 prostate
ACHN renal = system: ACHN renal
SNB-19 CNS = system: SNB-19 CNS
HL-60(TB) leukemia = system: HL-60(TB) leukemia
SNB-75 CNS = system: SNB-75 CNS
SK-MEL-28 melanoma = system: SK-MEL-28 melanoma
MDA-MB-231 breast = system: MDA-MB-231 breast

Structure (SMILES) | GI50 (MALME-3M melanoma) [µM] | TGI (MALME-3M melanoma) [µM] | GI50 (NCI-H460 lung) [µM] | TGI (NCI-H460 lung) [µM] | GI50 (HCC-2998 colon) [µM] | TGI (HCC-2998 colon) [µM] | GI50 (PC-3 prostate) [µM] | TGI (PC-3 prostate) [µM] | GI50 (ACHN renal) [µM] | TGI (ACHN renal) [µM] | GI50 (SNB-19 CNS) [µM] | TGI (SNB-19 CNS) [µM] | GI50 (HL-60(TB) leukemia) [µM] | TGI (HL-60(TB) leukemia) [µM] | GI50 (SNB-75 CNS) [µM] | TGI (SNB-75 CNS) [µM] | GI50 (SK-MEL-28 melanoma) [µM] | TGI (SK-MEL-28 melanoma) [µM] | GI50 (MDA-MB-231 breast) [µM] | TGI (MDA-MB-231 breast) [µM]
CCC(O)c1ccc(Br)cc1NC(=O)c1cccc(Cl)c1 (stereo not given) | 36.6 | > 100 | 21.9 | 78.5 | 20.5 | 45.4 | 12.5 | 53.4 | 23.1 | > 100 | 37.4 | > 100 | 22.3 | 60.1 | 10.8 | > 100 | 23.9 | 64.8 | 18.8 | > 100
CN(CCCCCl)P(=O)(OCCS(=O)(=O)CC(NC(=O)CCC(N)C(=O)O)C(=O)NC(C(=O)O)c1ccccc1)OCC1OC(n2ccc(N)nc2=O)C(F)(F)C1O (stereo not given) | 3.06 | > 100 | 0.104 | > 100 | 24.5 | > 100 | 5.24 | > 100 |  | > 33.8 | 0.143 | > 100 | 0.0339 | 5.23 | 0.825 | > 25.2 | 5.06 | > 100 | 14.2 | > 100
NCCSSCCN |  | > 100 |  | > 100 |  | > 100 |  | > 100 |  | > 100 |  | > 100 |  | > 100 |  | > 100 |  | > 100 |  | > 100
CC(C)c1c(-c2ccccc2)nc2c(C#N)c[nH]n2c1=O | 24.3 | 73.3 | 32.6 | > 100 | 29 | > 100 | 25.2 | > 73.5 | 30.6 | > 90.9 | 30.8 | > 100 | 22.3 | 60.4 | 21.4 | > 95.2 | 33.5 | > 100 | 33 | > 100
C=CCn1c(C)nc2ccc(Nc3nc(Nc4ccc(F)cc4)nc4ccccc34)cc21 | 13.1 | 35.7 | 3.11 | 14.5 | 8.87 | 23.5 | 3.14 | 14.7 | 1.99 | 4.31 | 9 | 23.8 | 4.95 | 23.3 | 1.51 | 3.37 | 1.65 | 3.13 | 2.37 | 8.24
O=C1/C(=C/c2cccc(Br)c2)COc2ccc(O)cc21 | 2.36 | 6.65 | 3.69 | 13.2 | 1.8 | 3.46 | 2.04 | 5.57 | 1.89 | 4.16 | 2.43 | 7.47 | 1.88 | 5.75 | 1.79 | 14.6 | 2.14 | 5.21 | 2.88 | 9.38
COc1cccc(/C(C#N)=C/c2nc3c(N4CCOCC4)nc(Cl)nc3n2C)c1 | 1.57 | 2.97 | 1.71 | 3.65 | 1.69 | 3.24 | 1.06 | 2.98 | 0.625 | 1.89 |  |  | 1.46 | 3.96 | 0.305 | 1.79 | 1.61 | 3.1 | 1.38 | 2.82
C[C@@H]1C[C@H](C)CN(S(=O)(=O)c2ccc3c(NO)c4ccc(S(=O)(=O)N5C[C@H](C)C[C@H](C)C5)cc4c(N=O)c3c2)C1 | 0.14 | 0.293 | 0.0565 | 0.222 | 0.122 | 0.265 | 0.117 | 0.249 | 0.143 | 0.293 | 0.164 | 0.353 | 0.185 | 0.448 | 0.123 | 0.255 | 0.129 | 0.276 | 0.0738 | 0.234
COC(=O)c1cc2c3ccccc3n3c(=O)c4cc5ccc(N(S(=O)(=O)c6ccc(C)cc6)S(=O)(=O)c6ccc(C)cc6)cc5nc4c(n1)c23 | 69.7 | > 100 | > 100 | > 100 | > 100 | > 100 | > 100 | > 100 | 17.2 | 82.6 | 26.6 | 78.3 | > 100 | > 100 | 44.5 | > 100 | > 100 | > 100 | 21.4 | > 100
CC(=O)c1ccc2c(c1)C1C=CCC1[C@H](c1cc3c(cc1Br)OCO3)N2 (stereo not given in full) | 0.86 | 45.8 | 0.954 | 4.81 | 3.84 | 10.6 | 0.636 | 7.04 | 1.63 | 22.1 | 1.87 | 33.2 | 1.3 | 5.07 | 0.5 | 7.55 | 0.626 | 6.56 | 1.3 | 11.4
COc1ccc(/C=C/C(=O)/C=C/c2cc3ccccc3[nH]c2=O)cc1 | 9.17 | 35.6 | 4.98 | 20 | 2.19 | 4.13 | 2.38 | 7.81 | 3.81 | 15.5 | 10.6 | 29 | 3.24 | 17.6 | 4.33 | 18.7 | 13.9 | 34.7 | 2.87 | 10.9
CC(=O)Oc1ccc(C23c4ccccc4C2(OC(C)=O)c2cc(OC(C)=O)ccc23)cc1 (stereo not given) | 9.61 | 27.3 | 12.3 | 44.4 | 2.91 | 8.46 | 3 | 11.9 | 1.94 | 5.4 | 4.64 | 15.5 | 2.41 | 6.72 | 6.49 | 54.7 | 31.6 | > 100 | 6 | 33.1
OCc1ccc(N2CCc3cccc(F)c3C2)cc1Cl | 24.1 | 63.6 | < 0.0194 | 1.23 | 1.96 | 11 | 16 | 47.9 | 20.7 | 67.3 | 30.9 | > 100 | 18.4 | 53.2 | 13.9 | 47.7 | 25.7 | > 79.7 | 13.4 | 43.5
O=S(=O)(NC1=NCCN1C(=S)SN1CCn2c1nsc2=S)c1cccc2ccccc12 | 12.3 | 57.4 | 20.4 | > 100 | 21.4 | 53.2 | 29.2 | > 100 | 27.5 | > 100 | 62.3 | > 100 | 30.9 | 99.3 | 24.3 | > 100 | 58.6 | > 100 | 14.7 | 32.5
CC[C@H](Nc1ncnc2nc[nH]c12)c1nc2cccc(F)c2c(=O)n1-c1ccccc1 | 17.2 | > 100 | 36.3 | > 100 | 58.6 | > 100 | 3.32 | > 100 | 10.7 | > 100 | 39.3 | > 100 | 4.72 | 56.5 | 0.715 | 16.6 | 13.7 | > 100 | 29.8 | > 100
COc1ccccc1C#Cc1ccccc1C#CCCCCO | 22.4 | 65.6 | 15.5 | 34.2 | 17.9 | 35.4 | 15.4 | 42.2 | 19.4 | 38.6 | 16.7 | 32.8 | 50.8 | > 100 | 12 | 26.2 | 16.8 | 33.4 | 12.4 | 27.1
O=[N+]([O-])c1cc(Cl)c2[nH]c3c(Cl)cc([N+](=O)[O-])cc3c2c1 | 0.265 | 4.04 | 0.311 | > 100 | 0.331 | > 100 | 0.379 | > 100 | 0.362 |  | 0.357 | > 100 | 0.304 | 6.34 | 0.511 | 9.35 | 0.47 | > 100 | 0.482 | 8.89
COc1cc2ncn(-c3cc(OCc4ccccc4C(F)(F)F)c(C(=O)N(C)C)s3)c2cc1OC | > 25 | > 25 | > 25 | > 25 | > 25 | > 25 | > 19 | > 25 | > 25 | > 25 | > 25 | > 25 | > 25 | > 25 | > 18.6 | > 25 | > 25 | > 25 | 10.9 | > 25
CCOC(=O)C(Cc1c[nH]c2c(N(CCO)CCO)cccc12)(NC(C)=O)C(=O)OCC | 202 | > 1000 | 642 | > 1000 | > 1000 | > 1000 | 409 | > 1000 | 119 | > 1000 | > 1000 | > 1000 | 318 | > 1000 | 50.9 | 249 | 736 | > 1000 | 692 | > 1000
CCCCCCCCOC(=O)CC[C@@H](C)[C@H]1CC[C@H]2[C@@H]3[C@H](OC(=O)CCN)C[C@@H]4C[C@H](OC(=O)CCN)CC[C@]4(C)[C@H]3C[C@H](OC(=O)CCN)[C@]12C | 2.58 | 5.86 | 3.18 | 10.6 | 13.8 | 39 | 7.17 | 22.4 | 15.9 | 32.2 | 3.48 | 13.8 | 3.32 | 11.3 | 3.32 | 13.6 | 3.52 | 15.1 | 2.44 | 7.9
COc1cc2nc(SCc3cc(OC)c(OC)c(OC)c3)n(Cc3ccccc3)c(=O)c2cc1OC | 2.83 | 27 | 3.09 | > 100 | 3.71 | > 100 | 3.27 | > 100 | 4.83 | 24.1 | 5.4 | 48.2 | 2.14 | > 100 | 0.876 | 6.23 | 3.88 | > 100 | 4.45 | > 66
CCNc1cc(-c2cccc(OC(F)(F)F)c2)nc2ccc(N3CCCC3)cc12 | 1.74 | 3.36 | 1.75 | 4.1 | 2.27 | 6.06 | 1.48 | 4.31 | 2.28 | 7.61 | 3.12 | 10.9 | 1.97 | 4.27 | 1.53 | 4.5 | 1.71 | 3.74 | 1.58 | 3.16
CS(=O)(=O)CCNCc1cc(-c2cc3c(Nc4ccc(OCc5cccc(F)c5)c(Cl)c4)ncnc3s2)cs1 | 19.1 | > 25 | 9.64 | > 25 | 6.59 | 21.5 | 13 | > 25 | 7.35 | > 25 | 24.6 | > 25 | 4.18 | > 25 | 7.9 | > 25 | 12.5 | > 25 | 6.15 | 19.9
O=c1c2cc(F)ccc2sc2c(N3CCNCC3)nc3ccc(F)cc3c12 | 1.59 | 3.06 | 1.59 | 3.12 | 1.74 | 3.4 | 1.7 | 3.3 | 1.48 | 2.8 | 1.69 | 3.2 | 2.05 | 3.94 | 1.42 | 2.82 | 1.74 | 3.17 | 1.42 | 2.79
O=C1CC2C(=O)c3ccccc3CC2c2ccccc21 (stereo not given) |  | > 100 |  | > 100 |  |  |  | > 100 |  | > 100 |  | > 100 |  | 62.6 |  | 75 |  | > 100 |  | > 100
